“Also recorded” adds a separate entry of the source. Marks after values point to notes of the source that are not given here.
Legend:
Format in all cases: cell-based, Saccharomyces cerevisiae
S. cerevisiae JAY 270 [1] = experiment: Growth test in liquid YNB medium, low/high nitrogen, serum bottles; settings: 40, 200, 1000 mg/L; low and high nitrogen media
Description: A second set of tests was performed in a defined liquid medium, Yeast Nitrogen Base with Glucose (YNB), containing (NH4)2SO4 at either low (1 mM) or high (10 mM) nitrogen content. […] All serum bottles were incubated in a shaker at 30° C. and 150 RPM. Each treatment was performed in biological duplicate. Samples were collected at 0, 5, and 10 hours.

S. cerevisiae JAY 270 [2] = experiment: Screening of growth in 24-well plates on YPDA; settings: for Cell growth score (colony size): YPDA, 30° C., 24 h
Description: Procedure: An inoculum culture of S. cerevisiae JAY 270 was grown in 100 mL of yeast extract-peptone-dextrose (YPD) medium (10 g/L yeast extract, 20 g/L peptone, 20 g/L glucose) in 200-mL serum bottles overnight in a shaker at 30° C. and 200 rpm. The cells were collected by centrifuging 10 min at 4000×g and 4° C. To wash off the medium residue, the cell pellet was resuspended in 30 mL of sterile 0.8% (w/v) NaCl solution and centrifuged at 4000×g for 10 min. The cell pellet was washed twice. Finally, the cell pellet was resuspended and diluted in 0.8% (w/v) NaCl to achieve cell concentrations of OD600=0.02 and 0.2.
The eight compounds were added in YPDA separately at 0.03%, 0.05%, 0.1%, and 0.2% (w/v). The standard control treatment contained only YPDA medium without addition of these compounds. Since the TrpOH and TyrOH stock solutions were dissolved in DMSO, the controls for those tests were YPDA with the same concentration of DMSO. A 3-mL aliquot of YPDA medium with or without the test compounds were loaded in each well of the 24-well plate.
Ten μL of the prepared S. cerevisiae JAY 270 cell suspension at OD600=0.02 or 0.2 was loaded onto the YPDA medium in each well of the 24-well plates. Then the plates were sealed with Parafilm and incubated at 30° C. for 24 h. There were four biological replicates for each treatment.
Yeast cell growth was evaluated by visual observation of the colony size in the well and scored as 0, +, ++, and +++.

S. cerevisiae JAY 270 [3] = experiment: Serum-bottle cultivation in YPD: biomass, glycerol, ethanol yields
Description: Procedure: Cultivations in serum bottles were used to determine the effect of the best-performing screened chemicals on the ethanol yield. S. cerevisiae JAY 270 was pre-cultured in 100 mL of YPD medium in 200-mL serum bottles overnight in a shaker at 30° C. and 200 rpm. The precultured yeast cells were collected and washed twice as described above. The cell pellet was resuspended in about 10 mL of 0.8% (w/v) NaCl and the cell concentration was estimated as OD600. TyrOH, PheOH, and TrpOH were added to 30 mL of YPD medium in 100-mL serum bottles at 0.05% and 0.2% respectively. The same amount of DMSO was added to YPD medium to serve as the control for TrpOH and TyrOH treatments. The bottles were inoculated with the prepared yeast cells to obtain an initial cell concentration of OD600=0.2. The serum bottles were sealed and cultured in a shaker at 30° C. and 200 rpm for 24 h. Each condition had three biological replicates.
(§1) Analytical methods: Cell growth was evaluated by monitoring OD600 and cell dry mass concentration. For dry mass measurements, 1.0 mL of culture was transferred to a pre-dried and pre-weighed 2-mL centrifuge tube. The tubes were centrifuged for 10 min at 14000 rpm using a microcentrifuge, and then the cell pellets were dried in an oven for 3 days at 65° C. The cell dry mass was determined by subtracting the initial tube mass from the dried mass of tube with cells. The concentrations of glucose, ethanol, and glycerol were measured via HPLC (Shimadzu LC20A series) outfitted with a refractive index detector and using an Aminex HPX-87H (300×7.8 mm) organic acid column and Cation H+ guard cartridge (Bio Rad Laboratories, Hercules, CA). The column was maintained at 65° C. and the mobile phase was 5 mM sulfuric acid with a flow rate of 0.6 mL/min. Standard compound solutions were used to calibrate the HPLC. Each sample was analyzed three times by HPLC.

S. cerevisiae JAY 238 = experiment: Serum-bottle cultivation in YPD, different yeast strains; settings: 0.2%
Description: as §1
Procedure: Seven yeast strains (S. cerevisiae ATCC 26603, S. cerevisiae JAY 238, S. cerevisiae JAY 240, S. cerevisiae JAY 241, S. paradoxus JAY 1502, S. kudriavzezii JAY 1503, and S. mikatae JAY 1504) were pre-cultured in 30 mL of YPD medium in 100 mL serum bottle overnight in a shaker at 30° C. and 200 rpm. The precultured yeast cells of each strains were collected and washed twice. Finally, the cell pellet was resuspended in about 10 mL 0.8% (w/v) NaCl and the OD600 measured. TyrOH, PheOH, and TrpOH were added to 30 mL of YPD medium in 100-mL serum bottles at 0.2% (w/v) respectively. The same amount of DMSO was added in YPD medium and served as control to the TrpOH and TyrOH treatments. The prepared yeast cells were added to obtain the initial cell concentration at OD600=0.2. The serum bottles were sealed and cultured in a shaker at 30° C. and 200 rpm for 24 h. There were three biological replicates for each treatment.

[4] = 0.05% (w/v), YPD, serum bottles
[5] = S. cerevisiae JAY 238, YPD (Table 9B)

In the case of `OCCc1c[nH]c2ccccc12` [TrpOH, tryptophol], the “Inhibitory effect on yeast cell growth in liquid YNB medium” value (S. cerevisiae JAY 270 [1]) is reported as “strongest inhibitory effect”, the “Cell growth score (colony size)” value (S. cerevisiae JAY 270 [2]; 0.03% (w/v)) is reported as “+++” and the “Cell growth score (colony size)” value (S. cerevisiae JAY 270 [2]; 0.05% (w/v)) is reported as “++”. For the same molecule, the “Cell growth score (colony size)” value (S. cerevisiae JAY 270 [2]; 0.10% (w/v)) was “+”, the “Cell growth score (colony size)” value (S. cerevisiae JAY 270 [2]; 0.20% (w/v)) was 0 and the “Concentration at which cell growth was reduced in the plate assay” value (S. cerevisiae JAY 270 [2]; molar equivalent of the % w/v value) was 3.1 mM. For the same molecule, the “Effect on cell growth in the plate assay (words)” value (S. cerevisiae JAY 270 [2]; tested concentrations, 24-well plates) was “inhibited growth; also recorded: reduced the growth”, the “Concentration at which cell growth was reduced/inhibited in the plate assay” value (S. cerevisiae JAY 270 [2]; w/v, 24-well plates) was 0.05% and the Biomass Yield (S. cerevisiae JAY 270 [3]; [4]) was 0.078 + 0.001 g/g. For the same molecule, the “Biomass yield % change vs. control” value (S. cerevisiae JAY 270 [3]; [4]) was −22* %, the EtOH yield (S. cerevisiae JAY 270 [3]; [4]) was 0.41 ± 0.01 g/g and the “EtOH yield % change vs. control” value (S. cerevisiae JAY 270 [3]; [4]) was 7.9* %. For the same molecule, the Glycerol yield (S. cerevisiae JAY 270 [3]; [4]) was 0.027 ± 0.001 g/g, the “Glycerol yield % change vs. control” value (S. cerevisiae JAY 270 [3]; [4]) was −20* % and the “Biomass yield vs. reference” value (S. cerevisiae JAY 270 [3]; 0.05%, YPD, serum bottles) was −22.0%. For the same molecule, the Ethanol yield (S. cerevisiae JAY 270 [3]; 0.05%, YPD, serum bottles) was 0.41 ± 0.01 g/g, the “Ethanol yield vs. reference” value (S. cerevisiae JAY 270 [3]; 0.05%, YPD, serum bottles) was 7.9% and the Glycerol yield (S. cerevisiae JAY 270 [3]; 0.05%, YPD, serum bottles) was 0.027 ± 0.001 g/g. For the same molecule, the “Glycerol yield vs. reference” value (S. cerevisiae JAY 270 [3]; 0.05%, YPD, serum bottles) was −19.6%, the OD600 (S. cerevisiae JAY 270 [3]; 0.05%, YPD, serum bottles) was 3.01 and the “Effect on yeast cell growth” value (S. cerevisiae JAY 270 [3]; 0.2%) was “reduced yeast cell growth”. For the same molecule, the Biomass Yield (S. cerevisiae JAY 270 [3]; 0.2% (w/v), YPD, serum bottles) was 0.042 + 0.006 g/g, the “Biomass yield % change vs. control” value (S. cerevisiae JAY 270 [3]; 0.2% (w/v), YPD, serum bottles) was −58* % and the EtOH yield (S. cerevisiae JAY 270 [3]; 0.2% (w/v), YPD, serum bottles) was 0.41 ± 0.01 g/g. For the same molecule, the “EtOH yield % change vs. control” value (S. cerevisiae JAY 270 [3]; 0.2% (w/v), YPD, serum bottles) was 10* %, the Glycerol yield (S. cerevisiae JAY 270 [3]; 0.2% (w/v), YPD, serum bottles) was 0.027 ± 0.009 g/g and the “Glycerol yield % change vs. control” value (S. cerevisiae JAY 270 [3]; 0.2% (w/v), YPD, serum bottles) was −22* %. The “Biomass yield vs. reference” value (S. cerevisiae JAY 270 [3]; 0.2%, YPD, serum bottles) was −58.2%, the “Effect on ethanol yield” value (S. cerevisiae JAY 270 [3]; 0.2%, YPD, serum bottles) was “increased the ethanol yield significantly” and the Ethanol yield (S. cerevisiae JAY 270 [3]; 0.2%, YPD, serum bottles) was 0.41 ± 0.01 g/g. The “Ethanol yield vs. reference” value (S. cerevisiae JAY 270 [3]; 0.2%, YPD, serum bottles) was 10.3%, the Glycerol yield (S. cerevisiae JAY 270 [3]; 0.2%, YPD, serum bottles) was 0.027 ± 0.009 g/g and the “Glycerol yield vs. reference” value (S. cerevisiae JAY 270 [3]; 0.2%, YPD, serum bottles) was −21.9%. For the same molecule, the OD600 (S. cerevisiae JAY 270 [3]; 0.2%, YPD, serum bottles) was 1.52, the “Biomass Yield” value (S. cerevisiae JAY 238; S. cerevisiae JAY 238) was 0.060 ± 0.000 g/g and the “Biomass yield % change vs. control” value (S. cerevisiae JAY 238; S. cerevisiae JAY 238) was −12* %. For the same molecule, the “EtOH yield” value (S. cerevisiae JAY 238; S. cerevisiae JAY 238) was 0.482 ± 0.017 g/g, the “Glycerol yield” value (S. cerevisiae JAY 238; S. cerevisiae JAY 238) was 0.023 ± 0.002 g/g and the “Glycerol yield % change vs. control” value (S. cerevisiae JAY 238; S. cerevisiae JAY 238) was −49* %. For the same molecule, the “Glycerol yield decrease from control” value (S. cerevisiae JAY 238; S. cerevisiae JAY 238) was 42%, the DCW (S. cerevisiae JAY 238; S. cerevisiae JAY 238, YPD) was 1.30 mg and the “DCW Δ vs. ref” value (S. cerevisiae JAY 238; S. cerevisiae JAY 238, YPD) was 46.4%. For the same molecule, the OD600 (S. cerevisiae JAY 238; S. cerevisiae JAY 238, YPD) was 0.39, the “OD600 Δ vs. ref” value (S. cerevisiae JAY 238; S. cerevisiae JAY 238, YPD) was 16.7% and the “Biomass Yield” value (S. cerevisiae JAY 238; [5]) was 0.060 + 0.000 g/g. For the same molecule, the “Biomass yield Δ vs. ref” value (S. cerevisiae JAY 238; [5]) was −11.8%, the Ethanol yield (S. cerevisiae JAY 238; [5]) was 0.482 ± 0.017 g/g and the “Ethanol yield Δ vs. ref” value (S. cerevisiae JAY 238; [5]) was 14.7%. For the same molecule, the Glycerol yield (S. cerevisiae JAY 238; [5]) was 0.020 ± 0.002 g/g and the “Glycerol yield Δ vs. ref” value (S. cerevisiae JAY 238; [5]) was −48.90%.
